According to ChEMBL document CHEMBL5331042, “Azole inhibitors of mushroom and human tyrosinases: Current advances and prospects of drug development for melanogenic dermatological disorders” (Eur J Med Chem, 2022):
Values belong to the compound of their own block, whether it stands above or below them. Peptide text beside a SMILES is read from it.

Tests used:
Mushroom tyrosinase [1] = target: T1, Mushroom tyrosinase (Agaricus bisporus, UniProt O42713+Q00024+C7FF04+C7FF05); assay: Inhibition of mushroom tyrosinase using L-DOPA as substrate preincubated for 20 mins followed by substrate addition by absorbance based analysis
[2] = Cytotoxicity against mouse B16-F10 cells assessed as inhibition of cell growth at 8 uM measured after 24 hrs by MTT assay relative to control; assay type: toxicity, cell-based
Tyrosinase [3] = target: T2, Tyrosinase (Homo sapiens, UniProt P14679); assay: Inhibition of human tyrosinase using L-DOPA as substrate incubated for 10 to 20 mins by MBTH dye based assay
T2 sequence (P14679 whole entry): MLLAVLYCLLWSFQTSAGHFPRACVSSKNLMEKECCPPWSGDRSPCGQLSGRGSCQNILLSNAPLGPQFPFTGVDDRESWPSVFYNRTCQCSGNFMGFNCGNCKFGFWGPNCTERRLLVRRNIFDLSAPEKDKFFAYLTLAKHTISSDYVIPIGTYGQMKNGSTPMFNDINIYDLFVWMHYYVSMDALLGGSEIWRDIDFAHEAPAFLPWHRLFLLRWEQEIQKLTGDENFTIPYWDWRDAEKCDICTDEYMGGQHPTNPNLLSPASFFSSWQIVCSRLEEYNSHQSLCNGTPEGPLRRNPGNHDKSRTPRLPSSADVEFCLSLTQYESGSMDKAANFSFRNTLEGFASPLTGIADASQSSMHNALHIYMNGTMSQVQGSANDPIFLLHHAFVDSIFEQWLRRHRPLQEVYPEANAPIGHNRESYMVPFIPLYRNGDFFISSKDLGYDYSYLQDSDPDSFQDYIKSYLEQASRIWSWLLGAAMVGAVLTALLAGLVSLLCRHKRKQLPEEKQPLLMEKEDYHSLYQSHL

Mushroom tyrosinase [4] = target: T1, Mushroom tyrosinase; assay: Inhibition of mushroom tyrosinase using L-tyrosine as substrate preincubated for 20 mins followed by substrate addition by absorbance based analysis
Mushroom tyrosinase [5] = target: T1, Mushroom tyrosinase; assay: Inhibition of mushroom tyrosinase
Mushroom tyrosinase [6] = target: T1, Mushroom tyrosinase; assay: Inhibition of mushroom tyrosinase using L-DOPA as substrate preincubated for 10 mins followed by substrate addition and measured after 20 mins
Mushroom tyrosinase [7] = target: T1, Mushroom tyrosinase; assay: Inhibition of mushroom tyrosinase incubated for 10 mins by spectrophotometric analysis
Mushroom tyrosinase [8] = target: T1, Mushroom tyrosinase; assay: Binding affinity to mushroom tyrosinase assessed as inhibition constant incubated for 10 mins by spectrophotometric analysis
Tyrosinase [9] = target: T2, Tyrosinase; assay: Inhibition of human His-tagged tyrosinase CD expressed in HEK293 cells assessed as inhibition of melanin production using L-DOPA as substrate; assay type: cell-based
[10] = Cytotoxicity against mouse B16-F10 cells assessed as inhibition of cell growth upto 20 uM measured after 24 hrs by absorbance based assay relative to control; assay type: toxicity
[11] = target: Mushroom tyrosinase (Agaricus bisporus) (UniProt O42713+Q00024+C7FF04+C7FF05); assay: Inhibition of mushroom tyrosinase transfected in mouse B16-F10 cells at 25 uM using L-tyrosine as substrate relative to control; assay type: cell-based
Mushroom tyrosinase [12] = target: T1, Mushroom tyrosinase; assay: Binding affinity to mushroom tyrosinase assessed as inhibition constant using L-DOPA as substrate preincubated for 10 mins followed by substrate addition and measured after 20 mins
Mushroom tyrosinase [13] = target: T1, Mushroom tyrosinase; assay: Inhibition of mushroom tyrosinase using L-DOPA as substrate preincubated for 10 mins followed by substrate addition and measured after 20 mins by absorbance based analysis
[14] = Cytotoxicity against mouse B16-F10 cells assessed as inhibition of cell growth measured after 48 hrs by MTT assay; assay type: toxicity, cell-based
Mushroom tyrosinase [15] = target: T1, Mushroom tyrosinase; assay: Inhibition of mushroom tyrosinase using L-DOPA as substrate preincubated for 10 mins followed by substrate addition by absorbance based analysis
Mushroom tyrosinase [16] = target: T1, Mushroom tyrosinase; assay: Binding affinity to mushroom tyrosinase assessed as inhibition constant using L-DOPA as substrate preincubated for 10 mins followed by substrate addition by absorbance based analysis

Compound: NC(=S)N/N=C/c1ccc(OCc2cn(CC(=O)Nc3cccc(Br)c3)nn2)cc1
IC50 (Mushroom tyrosinase [1]): 0.21 µM
inhibition at 24 h, 8 µM [2]: ≤ 70%

Compound: CC(=O)Nc1nc(-c2ccc(O)cc2O)cs1
IC50 (Tyrosinase [3]): 5.6 µM

Compound: Cc1c(NC(=O)Cn2cc(COc3ccc(/C=N/NC(N)=S)cc3)nn2)cccc1[N+](=O)[O-]
IC50 (Mushroom tyrosinase [1]): 0.56 µM
IC50 (Mushroom tyrosinase [4]): 0.25 µM

Compound: CC(C)[C@@H]1NC(=O)[C@@H]2CCCN2C(=O)[C@H](Cc2ccc(O)cc2)NC(=O)[C@@H]2CCCN2C1=O (cyclo(PVPY))
IC50 (Mushroom tyrosinase [5]): 0.6 µM

Compound: NC(=S)N/N=C/c1ccc(OCc2cn(CC(=O)Nc3ccc([N+](=O)[O-])cc3)nn2)cc1
IC50 (Mushroom tyrosinase [1]): 0.68 µM

Compound: CC(C)(O)c1ccc(C(=O)Nc2nc(-c3ccc(O)cc3O)cs2)cc1
IC50 (Tyrosinase [3]): 3.2 µM

Compound: NC(=S)N/N=C/c1ccc(OCc2cn(CC(=O)Nc3ccc(F)cc3)nn2)cc1
IC50 (Mushroom tyrosinase [1]): 0.6 µM
IC50 (Mushroom tyrosinase [4]): 0.14 µM

Compound: CC(C)Nc1nc(-c2ccc(O)cc2O)cs1
IC50 (Tyrosinase [3]): 1.1 µM

Compound: Cc1c(Cl)cccc1NC(=O)Cn1cc(COc2ccc(/C=N/NC(N)=S)cc2)nn1
IC50 (Mushroom tyrosinase [1]): 0.26 µM

Compound: O=C(NC1CCCCC1)c1csc(-c2ccc(O)cc2O)n1
IC50 (Tyrosinase [3]): 3.2 µM

Compound: NC(=S)N/N=C/c1ccc(OCc2cn(CC(=O)Nc3cccc(Cl)c3Cl)nn2)cc1
IC50 (Mushroom tyrosinase [1]): 0.42 µM

Compound: CCCC(=O)Nc1cnc(-c2cc(CCC)c(O)cc2O)s1
IC50 (Tyrosinase [3]): > 1000 µM

Compound: CCCCn1c(SCC(=O)Nc2ccc(F)cc2)nnc1-c1ccccc1
IC50 (Mushroom tyrosinase [6]): 0.37 µM

Compound: CCCCCn1nc(-c2ccccc2)n(CC(=O)NNC(=S)Nc2ccccc2C(F)(F)F)c1=O
IC50 (Mushroom tyrosinase [7]): 5.62 µM
Ki (Mushroom tyrosinase [8]): 0.122 µM

Compound: NC(=S)N/N=C/c1ccc(OCc2cn(CC(=O)Nc3cccc(Cl)c3)nn2)cc1
IC50 (Mushroom tyrosinase [1]): 0.5 µM

Compound: COc1ccccc1-n1c(SCC(=O)Nc2ccc(F)cc2)nnc1-c1ccccc1F
IC50 (Mushroom tyrosinase [6]): 0.17 µM

Compound: COc1cccc(NC(=O)Cn2cc(COc3ccc(/C=N/NC(N)=S)cc3)nn2)c1
IC50 (Mushroom tyrosinase [1]): 0.84 µM
IC50 (Mushroom tyrosinase [4]): 0.22 µM

Compound: COc1ccc(NC(=O)Cn2cc(COc3ccc(/C=N/NC(N)=S)cc3)nn2)cc1
IC50 (Mushroom tyrosinase [1]): 0.52 µM
IC50 (Mushroom tyrosinase [4]): 0.12 µM

Compound: COc1ccccc1-n1c(SCC(=O)Nc2ccc(Br)cc2)nnc1-c1ccccc1
IC50 (Mushroom tyrosinase [6]): 0.0048 µM
Ki (Mushroom tyrosinase [12]): 0.007 µM

Compound: COc1cc(/C=N/c2nnc(S)s2)ccc1O
IC50 (Mushroom tyrosinase [15]): 0.036 µM
Ki (Mushroom tyrosinase [16]): 0.038 µM

Compound: CCCCn1c(SCC(=O)Nc2ccc(I)cc2)nnc1-c1ccccc1
IC50 (Mushroom tyrosinase [6]): 0.21 µM

Compound: CCCCCn1nc(-c2ccccc2)n(CC(=O)NNC(=O)Nc2ccccc2F)c1=O
IC50 (Mushroom tyrosinase [7]): > 20 µM

Compound: NC(=S)N/N=C/c1ccc(OCc2cn(CC(=O)Nc3ccccc3)nn2)cc1
IC50 (Mushroom tyrosinase [1]): 2.18 µM
IC50 (Mushroom tyrosinase [4]): 0.79 µM

Now from value to compound, other results behind:

IC50 (Tyrosinase [3]): 5.7 µM
Compound: OCc1ccc(Nc2nc(-c3ccc(O)cc3O)cs2)cc1

IC50 (Mushroom tyrosinase [6]): 0.34 µM
Compound: CCCCn1c(SCC(=O)Nc2ccc(Br)cc2)nnc1-c1ccccc1

IC50 (Mushroom tyrosinase [7]): 0.00166 µM
Ki (Mushroom tyrosinase [8]): 0.012 µM
Compound: CCCCCn1nc(-c2ccccc2)n(CC(=O)NNC(=O)Nc2ccccc2C(F)(F)F)c1=O

IC50 (Tyrosinase [9]): 15 µM
Compound: Oc1ccc(O)cc1 [HYDROQUINONE]

IC50 (Tyrosinase [3]): 40 µM
Compound: CN(c1nc(-c2ccc(O)cc2O)cs1)C1CCCCC1

IC50 (Mushroom tyrosinase [5]): 1.5 µM
Compound: CC(C)[C@H]1C(=O)N2CCC[C@H]2C(=O)N[C@@H](Cc2ccc(O)cc2)C(=O)N2CCC[C@H]2c2cn1nn2

IC50 (Mushroom tyrosinase [5]): 11.18 µM
inhibition [11]: 65%
Compound: O=C1/C(=C/c2ccccc2O)OC(=S)N1c1ccccc1
inhibition at 24 h, up to 20 µM [10]: ~65%

IC50 (Mushroom tyrosinase [13]): 0.3 µM
Compound: O=C1C=C(Cn2cc(COc3ccc4ccccc4c3)nn2)C(=O)C=C1O
IC50 at 48 h [14]: 67.5 µM

IC50 (Mushroom tyrosinase [6]): 0.02 µM
Compound: COc1ccccc1-n1c(SCC(=O)Nc2ccccc2)nnc1-c1ccccc1

IC50 (Mushroom tyrosinase [7]): > 20 µM
Compound: CCCCCn1nc(-c2ccccc2)n(CC(=O)NNC(=O)Nc2ccc(F)cc2)c1=O

IC50 (Tyrosinase [9]): 1200 µM
Compound: C[C@@H](O)CCc1ccc(O)cc1
